Results: patent US8138205B2, “Heteroarylalkoxy-substituted quinolone inhibitors of PDE4” (Kalypsys, Inc., priority 2006, dated 2012)

Molecular target: T1, PDE4B (Homo sapiens, UniProt Q07343)
T1 construct: hex-histidine (His6) (N); made in house
Test: PDE/AK Biological Activity Assay (coupled PDE/adenylate kinase bioluminescent assay)
Assay type: biochemical
Details: catalytic domain of PDE4B, read-out: PDE4 Enzyme IC50
Excerpt: Phosphodiesterases regulate the activity of the second messenger cyclic adenosine monophosphate (cAMP) by hydrolyzing cAMP to adenosine monophosphate (AMP). We developed a coupled PDE/AK bioluminescent high-throughput assay to measure the activity of phosphodiesterases. In the PDE/AK assay, the AMP produced from the hydrolysis of cAMP by phosphodiesterase is converted to adenosine diphosphate (ADP) by the phosphotransferase activity of adenylate kinase (also known as ADK or myokinase). Adenylate kinase will catalyze the conversion of 1 mole of AMP and 1 mole of ATP into 2 moles of ADP. Thus the conversion of AMP to ADP will result in the subsequent loss of ATP. The decrease in ATP concentration can be monitored as light output using luciferase in a reaction that requires ATP to produce light. The PDE/AK assay uses luciferase, which catalyzes the production of light from ATP present in the reaction mix. The amount of emitted light is inversely proportional to the level of AMP present in the reaction. Test compounds are incubated with the phosphodiesterases and phosphodiesterase inhibitors will decrease the rate of cAMP hydrolysis and decrease the subsequent production of AMP. Thus phosphodiesterase inhibitors will decrease the conversion of ATP to ADP and result in the greatest emission of light.
Compounds may be screened for functional potency in in vitro biochemical assays for their ability to inhibit the activity of phosphodiesterase (PDE) enzymes. A coupled PDE/AK assay was utilized to measure the inhibitory activity of compounds on PDE isoforms. The catalytic domain of PDE4B was fused to an amino-terminus hex-histidine affinity tag and purified. PDE4B enzyme was incubated with compounds for 10 minutes. Cyclic AMP substrate, ATP and adenylate kinase were then added to the PDE enzyme mix and incubated for 45 minutes at room temperature. A commercial ATP detection assay, Perkin Elmer's easyLite ATP detection reagent, was then added to measure the relative amount of ATP present in the reaction. After 10 minute incubation, the luminescent signal was quantitated with either the Perkin Elmer Viewlux or Molecular Devices Acquest or Analyst. Roflumilast and Rolipram are the positive controls used in the assay.

T1 sequence (Q07343 330-659 limits assumed, species assumed): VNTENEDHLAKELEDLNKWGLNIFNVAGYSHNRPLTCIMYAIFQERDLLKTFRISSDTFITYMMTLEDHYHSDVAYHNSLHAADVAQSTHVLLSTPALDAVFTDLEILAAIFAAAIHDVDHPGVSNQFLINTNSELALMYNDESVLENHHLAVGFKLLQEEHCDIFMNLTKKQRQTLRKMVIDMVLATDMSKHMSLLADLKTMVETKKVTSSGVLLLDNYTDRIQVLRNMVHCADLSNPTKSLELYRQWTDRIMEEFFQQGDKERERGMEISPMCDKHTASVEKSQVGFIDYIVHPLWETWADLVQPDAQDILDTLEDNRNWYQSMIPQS

| SMILES | IC50 |
| --- | --- |
| CCN1CCN(CCCCCCOc2c(OC)ccc3c(Nc4c(Cl)cncc4Cl)cc(=O)[nH]c23)CC1 [Example 23, 4-(3,5-dichloropyridin-4-ylamino)-8-(6-(4-ethylpiperazin-1-yl)hexyloxy)-7-methoxyquinolin-2(1H)-one] | < 1000 nM |
| COc1ccc2c(Nc3c(Cl)cncc3Cl)cc(=O)[nH]c2c1OCCCCCCN(C)CCN(C)C [Example 24, 4-(3,5-dichloropyridin-4-ylamino)-8-(6-((2-(dimethylamino)ethyl)(methyl)amino)hexyloxy)-7-methoxyquinolin-2(1H)-one] | < 1000 nM |
| COc1ccc2c(Nc3c(Cl)cncc3Cl)cc(=O)[nH]c2c1OCCCCCCN(CCO)CCO [Example 31, 8-(6-(Bis(2-hydroxyethyl)amino)hexyloxy)-4-(3,5-dichloropyridin-4-ylamino)-7-methoxyquinolin-2(1H)-one] | < 1000 nM |
| COc1ccc2c(Nc3c(C)cncc3C)cc(=O)[nH]c2c1OCCCCCCN1CCN(C)CC1 [Example 34, 4-(3,5-Dimethylpyridin-4-ylamino)-7-methoxy-8-(6-(4-methylpiperazin-1-yl)hexyloxy)quinolin-2(1H)-one] | < 1000 nM |
| COc1ccc2c(Nc3c(C)cncc3C)cc(=O)[nH]c2c1OCCCCN(C)C [Example 44, 8-(4-(dimethylamino)butoxy)-4-(3,5-dimethylpyridin-4-ylamino)-7-methoxyquinolin-2(1H)-one] | < 1000 nM |
| COc1ccc2c(Nc3c(Cl)cncc3Cl)cc(=O)[nH]c2c1OCCCCCCNC(=N)N [Example 63, 1-(6-(4-(3,5-dichloropyridin-4-ylamino)-7-methoxy-2-oxo-1,2-dihydroquinolin-8-yloxy)hexyl)guanidine] | < 1000 nM |
| COc1ccc2c(Nc3c(C)cncc3C)cc(=O)[nH]c2c1OCCCO [Example 81, 4-(3,5-dimethylpyridin-4-ylamino)-8-(3-hydroxypropoxy)-7-methoxyquinolin-2(1H)-one] | < 1000 nM |
| COc1ccc2c(Nc3c(C)cncc3C)cc(=O)[nH]c2c1OCCCCO [Example 82, 4-(3,5-dimethylpyridin-4-ylamino)-8-(4-hydroxybutoxy)-7-methoxyquinolin-2(1H)-one] | < 1000 nM |
| COc1ccc2c(Nc3c(C)cncc3C)cc(=O)[nH]c2c1OCCCCCO [Example 83, 4-(3,5-dimethylpyridin-4-ylamino)-8-(5-hydroxypentyloxy)-7-methoxyquinolin-2(1H)-one] | < 1000 nM |
| COc1ccc2c(Nc3c(C)cncc3C)cc(=O)[nH]c2c1OCCCCCCO [Example 84, 4-(3,5-dimethylpyridin-4-ylamino)-8-(6-hydroxyhexyloxy)-7-methoxyquinolin-2(1H)-one] | < 1000 nM |
| COc1ccc2c(Nc3c(C)cncc3C)cc(=O)[nH]c2c1OCCCc1nn[nH]n1 [Example 85, 8-(3-(2H-tetrazol-5-yl)propoxy)-4-(3,5-dimethylpyridin-4-ylamino)-7-methoxyquinolin-2(1H)-one] | < 1000 nM |
| COc1ccc2c(Nc3c(C)cncc3C)cc(=O)[nH]c2c1OCCCCc1nn[nH]n1 [Example 86, 8-(4-(2H-tetrazol-5-yl)butoxy)-4-(3,5-dimethylpyridin-4-ylamino)-7-methoxyquinolin-2(1H)-one] | < 1000 nM |
| COc1ccc2c(Nc3c(C)cncc3C)cc(=O)[nH]c2c1OCCCCCc1nn[nH]n1 [Example 87, 8-(5-(2H-tetrazol-5-yl)pentyloxy)-4-(3,5-dimethylpyridin-4-ylamino)-7-methoxyquinolin-2(1H)-one] | < 1000 nM |
| COc1ccc2c(Nc3c(C)cncc3C)cc(=O)[nH]c2c1OCCCCCCc1nn[nH]n1 [Example 88, 8-(6-(2H-tetrazol-5-yl)hexyloxy)-4-(3,5-dimethylpyridin-4-ylamino)-7-methoxyquinolin-2(1H)-one] | < 1000 nM |
| COc1ccc2c(Nc3c(Cl)cncc3Cl)cc(=O)[nH]c2c1OCCCCC(=O)NCC(=O)O [Example 94, 2-(5-(4-(3,5-dichloropyridin-4-ylamino)-7-methoxy-2-oxo-1,2-dihydroquinolin-8-yloxy)pentanamido)acetic acid] | < 1000 nM |
